Measured values reported in patent US9216968B2, “Heterocyclic derivative and pharmaceutical drug” (NIPPON SHINYAKU CO., LTD., priority 2011, dated 2015).
Structures can show the parent of a compound that is named as a salt.

Columns and labels:
A549 cells = experiment: Inhibition of PGE2 production in A549 cell (IL-1β stimulated); type: cell-based, human; settings: Homo sapiens, A549, 24 h, IL-1β 5 ng/well, PGE2 in culture medium
Procedure: Human A549 cells were seeded onto a 96-well plate at 2×10^4 cells/100 μL per well and allowed to incubate overnight. After removing the culture medium and washing with phosphate buffered saline, the culture medium was replaced by RPMI culture medium with 3% FBS containing a DMSO solution containing test compound or DMSO alone (such that DMSO final concentration would be […] in each). After incubation for 60 minutes, IL-1β (5 ng/well) was added and incubated at 37° C. for 24 hours. Then, PGE2 in the culture medium was measured using HTRF kit (Cisbio International, catalogue #62P2APEC), and PGF2α in the culture medium was measured using EIA kit (Cayman Chemical Company, catalogue #516011). The solution free of test compound was used as positive control, and the solution free of test compound and IL-1β was used as negative control. 100% activity was defined as PGE2 and PGF2α production in the positive control minus PGE2 and PGF2α production in the negative control. IC50 value was calculated by standard method.

human mPGES-1 = human mPGES-1 (Homo sapiens (Human), UniProt O14684); experiment: mPGES-1 inhibiting activity (microsome fractions, PGE2 by HTRF); type: biochemical; settings: microsomes from CHO-K1 cells transfected with human mPGES-1; PGH2 1 μM, 4° C., 60 seconds; read-out: mPGES-1 Inhibition IC50
Procedure: mPGES-1 microsome fractions were prepared from CHO-K1 cells transiently transfected with plasmid encoding the human mPGES-1cDNA. Microsomes were diluted with potassium phosphate buffer containing reduced glutathione (pH7.4), and DMSO containing test compound or DMSO alone was added (such that DMSO final concentration would be 1% in each) and incubated at 4° C. for 20 minutes. Then, the enzymatic reactions were initiated by the addition of PGH2 substrate (final concentration 1 μM) and incubated at 4° C. for 60 seconds. The reaction was terminated by the addition of a citrate solution (final citrate concentration 50 mM) containing ferric chloride (final concentration 1 mg/mL). PGE2 production in the enzyme reaction aliquot was measured using HTRF kit (Cisbio International, catalogue #62P2APEC). The solution free of test compound was used as positive control, and the solution free of test compound and microsome sample was used as negative control. 100% activity was defined as PGE2 production in the positive control minus PGE2 production in negative control. IC50 value was calculated by standard method.

human mPGES-1, sequence (O14684 whole entry): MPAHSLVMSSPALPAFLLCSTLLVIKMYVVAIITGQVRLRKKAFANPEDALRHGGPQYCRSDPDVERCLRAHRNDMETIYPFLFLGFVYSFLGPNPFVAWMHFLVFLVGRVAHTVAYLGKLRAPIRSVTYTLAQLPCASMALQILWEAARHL

For `Cc1c(Cl)cccc1NC(=O)c1cc(NC(=O)c2ccccc2C(F)(F)F)cc2[nH]c(N3CC[C@H](O)C3)nc12` [Example 150, N-(3-Chloro-2-methylphenyl)-2-[(3S)-3-hydroxypyrrolidin-1-yl]-6-({[2-(trifluoromethyl)phenyl]carbonyl}amino)-1H-benzimidazole-4-carboxamide hydrochloride], the IC50 (A549 cells) was 376 nM and the IC50 (human mPGES-1) was 2.1 nM.
`COCCc1nc2c(C(=O)Nc3cccc(Cl)c3C)cc(NC(=O)c3ccccc3C(F)(F)F)cc2[nH]1` [Example 81, N-(3-Chloro-2-methylphenyl)-2-(2-methoxyethyl)-6-({[2-(trifluoromethyl)phenyl]carbonyl}amino)-1H-benzimidazole-4-carboxamide hydrochloride] was tested, and the IC50 (A549 cells) was 404 nM and the IC50 (human mPGES-1) was 5 nM.
Compound `COCc1nc2c(C(=O)NC3CCCCC3)cc(NC(=O)c3ccccc3C(F)(F)F)cc2[nH]1` [Example 20, N-Cyclohexyl-2-(methoxymethyl)-6-({[2-(trifluoromethyl)phenyl]carbonyl}amino)-1H-benzimidazole-4-carboxamide] has an IC50 (A549 cells) of 98 nM and an IC50 (human mPGES-1) of 5.6 nM.
Work on `Cc1ccc(NC(=O)c2cc(NC(=O)c3cc(Cl)ccc3Cl)cc3[nH]c(C4(C)CC4)nc23)cc1Cl` [Example 211, N-(3-Chloro-4-methylphenyl)-6-{[(2,5-dichlorophenyl)carbonyl]amino}-2-(1-methylcyclopropyl)-1H-benzimidazole-4-carboxamide hydrochloride] yielded an IC50 (A549 cells) of 8.5 nM and an IC50 (human mPGES-1) of 2.5 nM.
With `COCc1nc2c(C(=O)Nc3cccc4c3CCCC4)cc(NC(=O)c3ccccc3C(F)(F)F)cc2[nH]1` [Example 34, 2-(Methoxymethyl)-N-(5,6,7,8-tetrahydronaphthalen-1-yl)-6-({[2-(trifluoromethyl)phenyl]carbonyl}amino)-1H-benzimidazole-4-carboxamide hydrochloride] the IC50 (A549 cells) was 27.6 nM and the IC50 (human mPGES-1) was 4.9 nM.
`COCc1nc2c(C(=O)Nc3ccc(C)c(C)c3)cc(NC(=O)c3ccccc3C(F)(F)F)cc2[nH]1` [Example 31, N-(3,4-Dimethylphenyl)-2-(methoxymethyl)-6-({[2-(trifluoromethyl)phenyl]carbonyl}amino)-1H-benzimidazole-4-carboxamide hydrochloride] was tested, and the IC50 (A549 cells) was 69 nM and the IC50 (human mPGES-1) was 4.1 nM.
Work on `Cc1c(Cl)cccc1NC(=O)c1cc(NC(=O)c2ccccc2C(F)(F)F)cc2[nH]c(NCCOC(C)C)nc12` [Example 175, N-(3-Chloro-2-methylphenyl)-2-{[2-(propan-2-yloxy)ethyl]amino}-6-({[2-(trifluoromethyl)phenyl]carbonyl}amino)-1H-benzimidazole-4-carboxamide hydrochloride] yielded an IC50 (A549 cells) of 144 nM and an IC50 (human mPGES-1) of 3.6 nM.
In the case of `Cc1c(Cl)cccc1NC(=O)c1cc(NC(=O)c2cc(Cl)ccc2Cl)cc2[nH]c(NCCOC(C)C)nc12` [Example 193, N-(3-Chloro-2-methylphenyl)-6-{[(2,5-dichlorophenyl)carbonyl]amino}-2-{[2-(propan-2-yloxy)ethyl]amino}-1H-benzimidazole-4-carboxamide hydrochloride], the IC50 (A549 cells) is reported as 18.9 nM and the IC50 (human mPGES-1) is reported as 0.4 nM.
For `CCNc1nc2c(C(=O)Nc3cccc(Cl)c3C)cc(NC(=O)c3ccccc3C(F)(F)F)cc2[nH]1` [Example 139, N-(3-Chloro-2-methylphenyl)-2-(ethylamino)-6-({[2-(trifluoromethyl)phenyl]carbonyl}amino)-1H-benzimidazole-4-carboxamide hydrochloride], the IC50 (A549 cells) was 72.8 nM and the IC50 (human mPGES-1) was 1.9 nM.
In the case of `COCc1nc2c(C(=O)Nc3cccc(Cl)c3C)cc(NC(=O)c3cc(C)ccc3C(F)(F)F)cc2[nH]1` [Example 109, N-(3-Chloro-2-methylphenyl)-2-(methoxymethyl)-6-({[5-methyl-2-(trifluoromethyl)phenyl]carbonyl}amino)-1H-benzimidazole-4-carboxamide hydrochloride], the IC50 (A549 cells) is reported as 8.7 nM and the IC50 (human mPGES-1) is reported as 7.8 nM.
For `Cc1c(Cl)cccc1NC(=O)c1cc(NC(=O)c2ccccc2C(F)(F)F)cc2[nH]c(NCC(C)(C)CN(C)C)nc12` [Example 154, N-(3-Chloro-2-methylphenyl)-2-{[3-(dimethylamino)-2,2-dimethylpropyl]amino}-6-({[2-(trifluoromethyl)phenyl]carbonyl}amino)-1H-benzimidazole-4-carboxamide hydrochloride], the IC50 (A549 cells) was 64.4 nM and the IC50 (human mPGES-1) was 20 nM.
In the case of `Cc1c(Cl)cccc1NC(=O)c1cc(NC(=O)c2ccccc2C(F)(F)F)cc2c1ncn2C` [Example 46, N-(3-Chloro-2-methylphenyl)-1-methyl-6-({[2-(trifluoromethyl)phenyl]carbonyl}amino)-1H-benzimidazole-4-carboxamide], the IC50 (A549 cells) is reported as 231 nM and the IC50 (human mPGES-1) is reported as 26 nM.
`COCc1nc2c(C(=O)Nc3c(F)cccc3F)cc(NC(=O)c3ccccc3C(F)(F)F)cc2[nH]1` [Example 40, N-(2,6-Difluorophenyl)-2-(methoxymethyl)-6-({[2-(trifluoromethyl)phenyl]carbonyl}amino)-1H-benzimidazole-4-carboxamide] was tested, and the IC50 (A549 cells) was 300 nM and the IC50 (human mPGES-1) was 194 nM.
For `Cc1c(Cl)cccc1NC(=O)c1cc(NC(=O)c2ccccc2C(F)(F)F)cc2[nH]c([C@@H]3CCCN3C)nc12` [Example 72, N-(3-Chloro-2-methylphenyl)-2-[(2S)-1-methylpyrrolidin-2-yl]-6-({[2-(trifluoromethyl)phenyl]carbonyl}amino)-1H-benzimidazole-4-carboxamide], the IC50 (A549 cells) was 60 nM and the IC50 (human mPGES-1) was 9.8 nM.
For `COCc1nc2c(C(=O)Nc3cccc(Cl)c3C)cc(NC(=O)c3ccncc3Cl)cc2[nH]1` [Example 245, N-(3-Chloro-2-methylphenyl)-6-{[(3-chloropyridin-4-yl)carbonyl]amino}-2-(methoxymethyl)-1H-benzimidazole-4-carboxamide hydrochloride], the IC50 (A549 cells) was 166 nM and the IC50 (human mPGES-1) was 25.7 nM.
Work on `COCc1nc2c(C(=O)NC3CCC(F)(F)CC3)cc(NC(=O)c3ccccc3C(F)(F)F)cc2[nH]1` [Example 26, N-(4,4-Difluorocyclohexyl)-2-(methoxymethyl)-6-({[2-(trifluoromethyl)phenyl]carbonyl}amino)-1H-benzimidazole-4-carboxamide hydrochloride] yielded an IC50 (A549 cells) of 872 nM and an IC50 (human mPGES-1) of 172 nM.
In the case of `COC1CN(c2nc3c(C(=O)Nc4cccc(Cl)c4C)cc(NC(=O)c4ccccc4C(F)(F)F)cc3[nH]2)C1` [Example 166, N-(3-Chloro-2-methylphenyl)-2-(3-methoxyazetidin-1-yl)-6-({[2-(trifluoromethyl)phenyl]carbonyl}amino)-1H-benzimidazole-4-carboxamide hydrochloride], the IC50 (A549 cells) is reported as 29 nM and the IC50 (human mPGES-1) is reported as 3.2 nM.
For `COCC(C)(C)c1nc2c(C(=O)Nc3cccc(Cl)c3C)cc(NC(=O)c3ccccc3C(F)(F)F)cc2[nH]1` [Example 75, N-(3-Chloro-2-methylphenyl)-2-(1-methoxy-2-methylpropan-2-yl)-6-({[2-(trifluoromethyl)phenyl]carbonyl}amino)-1H-benzimidazole-4-carboxamide hydrochloride], the IC50 (A549 cells) was 19.7 nM and the IC50 (human mPGES-1) was 31.7 nM.
Compound `Cc1ccc(NC(=O)c2cc(NC(=O)c3c(Cl)cccc3Cl)cc3[nH]c(N(C)C)nc23)cc1Cl` [Example 206, N-(3-Chloro-4-methylphenyl)-6-{[(2,6-dichlorophenyl)carbonyl]amino}-2-(dimethylamino)-1H-benzimidazole-4-carboxamide hydrochloride] has an IC50 (A549 cells) of 74.5 nM and an IC50 (human mPGES-1) of 3.2 nM.
